A short description of one data set: Solubility test. The format is physicochemical. The method in brief:
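Dissolved concentration determined by LC/MS or SPE/MS (absolute calibration) in diluted filtrates, after 2 μL of 10 mmol/L DMSO stock was added to 198 μL JP 1st or JP 2nd fluid and equilibrated either 1 h with shaking at room temperature or 16 h standing at 25 °C.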

A further data set has as its target T1, CYP2C9 (Homo sapiens, UniProt P11712).
T1 construct: The commercially available pooled human liver microsomes are used as an enzyme resource; from tissue; host or cells: pooled human liver microsomes
Kind of data set: CYP inhibition test (CYP2C9). The class given is in vitro ADME. The settings on record: pooled human liver microsomes; tolbutamide methyl-hydroxylation. The essentials: (§1)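 Pooled human liver microsomes (0.2 mg protein/mL) with compound at 1, 5, 10 and 20 μmol/L and NADPH, at 37 °C. Marker substrates: dextromethorphan 5 μmol/L (2D6), terfenadine 1 μmol/L (3A4), S-mephenytoin 50 μmol/L (2C19), tolbutamide 100 μmol/L (2C9). Metabolites were measured by LC/MS/MS, and IC50 was derived by logistic fit of remaining activity against the DMSO control.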
A general note: Liver microsomes are vesicles of endoplasmic reticulum, rich in cytochrome P450 enzymes.

Data set [1] has as its target T2, human ether-a-go-go related gene (hERG) channel (Homo sapiens, UniProt Q12809).
T2 construct: expressed in transfected cells; host or cells: CHO cells
Put plainly: hERG test. The settings on record: % inhibition of IKr tail peak current at 3 uM; CHO cells expressing hERG. The class given is cell-based. The essentials:
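IKr was recorded from hERG-expressing CHO cells by automated whole-cell patch clamp at a holding potential of −80 mV. A −50 mV leak step was followed by a 2 s depolarization to +20 mV and a 2 s repolarization to −50 mV, when current was measured.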

The next data set deals with T3, CYP3A4 (Homo sapiens, UniProt P08684).
T3 construct: The commercially available pooled human liver microsomes are used as an enzyme resource; from tissue; host or cells: pooled human liver microsomes
Kind of data set: CYP inhibition test (CYP3A4). The class given is in vitro ADME. The note with it: pooled human liver microsomes; terfenadine hydroxylation. The essentials: as §1

The target of data set [2] is T4, Recombinant human BACE1 (Homo sapiens, UniProt P56817).
T4 construct: purchased R&D Systems
Put plainly: Assay of BACE1 inhibitory activity: 96-well. The format is biochemical. The note with it: Assay format 96-well. Here is the method: 48.5 μL of substrate peptide solution (Biotin-XSEVNLDAEFRHDSGC-Eu: X=ε-amino-n-capronic acid. Eu=Europium cryplate) was added to each well of 96-hole half-area plate (a black plate: Costar), and after addition of 0.5 μl of the compound of the present invention (DMSO solution) and 1 μl of Recombinant human BACE1(R&D Systems), the reaction mixture was incubated at 30° C. for 3.5 hours. The substrate peptide was synthesized by reacting Cryptate TBPCOOH mono SMP (CIS bio international) with Biotin-XSEVNLDAEFRHDSGC (Peptide Institute, Inc.).
After the incubation for reaction, 50 μl of 8.0 μg/ml Streptavidin-XL665 (CIS bio international) dissolved in phosphate buffer (150 mmol/L […]—KH2PO4, pH 7.0, 0.008% Triton X-100, 0.8 mol/L KF) was added to each well and left stand at 30° C. for 45 minutes.

Data set [3] relates to Aβ production in neuroblastoma SH-SY5Y cells (SH/APPwt). Put plainly: β-amyloid (Aβ) production inhibitory effect in cell: 96-well. The format is cell-based. The note with it: Homo sapiens, Assay format 96-well. Here is the method: Neuroblastoma SH-SY5V cells (SH/APPwt) with human wild-type R-APP excessively expressed therein were prepared at 8×10^5 cells/mL, and 150 μl portions thereof were inoculated into each well of a 96-well culture plate (Falcon). The cells were cultured for 2 hours at […]. in a 5% gaseous carbon dioxide incubator. […] Namely, the final DMSO concentration was 1%, and the amount of the cell culture was 200 μl. After the incubation was performed for 24 hours from the addition of the test compound, 100 μl of the culture supernatant was collected from each fraction. The amount of the Aβ in each fraction was measured. The Aβ amount was measured as follows. 10 μl of a homogeneous time resolved fluorescence (HTRF) measurement reagent (Amyloid β1-40 peptide: CIS bio international) and 10 μof the culture supernatant were put into a 384-well half area microplate (black microplate, Costar) and mixed with each other, and then left standing overnight at 4° C. while the light was shielded.

For the next data set, the target named is T5, CYP1A2 (Homo sapiens, UniProt P05177).
T5 construct: The commercially available pooled human liver microsomes are used as an enzyme resource; from tissue; host or cells: pooled human liver microsomes
T5 sequence (P05177 1-516): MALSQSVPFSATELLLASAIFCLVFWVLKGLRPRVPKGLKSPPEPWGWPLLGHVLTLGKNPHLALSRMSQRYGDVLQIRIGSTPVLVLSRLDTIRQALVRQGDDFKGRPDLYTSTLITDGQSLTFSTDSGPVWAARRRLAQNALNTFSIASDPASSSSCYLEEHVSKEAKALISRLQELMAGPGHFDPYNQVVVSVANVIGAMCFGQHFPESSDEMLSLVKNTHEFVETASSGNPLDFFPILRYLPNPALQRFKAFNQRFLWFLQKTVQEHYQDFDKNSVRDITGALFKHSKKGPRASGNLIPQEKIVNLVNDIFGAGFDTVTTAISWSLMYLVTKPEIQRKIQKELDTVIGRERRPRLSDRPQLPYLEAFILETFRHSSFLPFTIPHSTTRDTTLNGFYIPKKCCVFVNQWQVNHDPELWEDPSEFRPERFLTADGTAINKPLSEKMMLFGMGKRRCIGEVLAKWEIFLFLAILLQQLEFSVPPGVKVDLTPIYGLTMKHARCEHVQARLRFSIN
Kind of data set: CYP inhibition test (CYP1A2). The format is in vitro ADME. The settings on record: pooled human liver microsomes; 7-ethoxyresorufin O-deethylation. The method in brief:
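Inhibition of CYP1A2 was measured in commercially available pooled human liver microsomes (0.2 mg protein/mL) using 7-ethoxyresorufin O-deethylation with 0.5 μmol/L ethoxyresorufin. Test compound at 1, 5, 10, 20 μmol/L in […] Hepes buffer was incubated at 37° C. after NADPH addition; methanol/acetonitrile=1/1 (v/v) stopped the reaction, and resorufin was read fluorescently.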

In another data set the target is T6, CYP2C19 (Homo sapiens, UniProt P33261).
T6 construct: The commercially available pooled human liver microsomes are used as an enzyme resource; from tissue; host or cells: pooled human liver microsomes
Put plainly: CYP inhibition test (CYP2C19). The settings on record: pooled human liver microsomes; mephenytoin 4′-hydroxylation. The class given is in vitro ADME. The method in brief:
as §1

A short description of the next data set: Metabolic stability test. The format is in vitro ADME. The settings on record: human liver microsomes, 37° C., 30 minutes, NADPH. The method in brief: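 Parent compound was measured by LC/MS/MS or SPE/MS after a methanol/acetonitrile quench and reported as % remaining, with the 0 min sample set to 100%. Incubations ran 30 min at 37 °C in pH 7.4 Tris buffer containing pooled human liver microsomes at 0.5 mg protein/mL and 1 mmol/L NADPH.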

In data set [4] the target is T7, P-gp (MDR1 expressing LLC-PK1 cells) (Homo sapiens, UniProt P08183).
T7 construct: host or cells: LLC-PK1
Kind of data set: P-gp substrate test. The note with it: net flux = Efflux Ratio in MDR1 expressing cells / Efflux Ratio in parent LLC-PK1 cells. The format is in vitro ADME. The protocol:
• 1. Cell line: • a. MDR/LLC-PK1 (Becton Dickinson) • b. LLC-PK1 (Becton Dickinson) • 2. Reference substrates: • a Digoxin (2 μM)
1. […] After incubation for designed time at 37° C., an aliquot (50 μL) of transport buffer in the donor and receiver side were collected. Assay was performed by duplicate or triplicate. 3. Reference substrate and the present invention in the aliquot was quantified by LC/MS/MS.
Pc(cm/sec)−Permeated amount (pmol)/area of cell membrane (cm2)/initial concentration (nM)/incubation time (sec)
The efflux ratio was calculated using the following equation:
Efflux Ratio=Basolateral-to-Apical Pe/Apical-to-Basolateral Pe
The net flux was calculated using the following equation
Net flux=Efflux Ratio in MDK1 expressing cells/Efflux Ratio in parent cells

Data set [5] deals with T4, Recombinant human BACE1. Put plainly: Assay of BACE1 inhibitory activity: 384-well. The class given is biochemical. The note with it: Assay format 384-well. The method in brief: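 Recombinant human BACE1 was incubated 2 h at 25 °C with a biotin/Eu-cryptate-labelled peptide substrate and compound in DMSO. Streptavidin-XL665 in pH 7.0 phosphate buffer containing 0.8 mol/L KF was then added for 30 min at 25 °C for HTRF detection.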

In data set [6] the test system is Aβ production in neuroblastoma SH-SY5Y cells (SH/APPwt). Put plainly: β-amyloid (Aβ) production inhibitory effect in cell: 384-well. The format is cell-based. The note with it: Homo sapiens, Assay format 384-well. The essentials: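 SH-SY5Y cells overexpressing human wild-type APP were seeded together with test compound (final DMSO 1%) and cultured for 21 h. Aβ1-40 in the supernatant was measured by HTRF after overnight incubation at 4 °C in the dark, reading fluorescence at 620 and 665 nm.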

[7] abbreviates: JP 1st fluid, 25 °C, pH 1.2, simulated gastric fluid, kinetic from dmso stock, read-out: JP1.
Where [8] appears, read: JP 2nd fluid A, 25 °C, pH 6.8, aqueous buffer, kinetic from dmso stock, read-out: JP2_μM.
[9] abbreviates: JP 1st fluid, pH 1.2, simulated gastric fluid, kinetic from dmso stock, read-out: JP1.
Setting [10] is: solubility in JP 2nd fluid B, 1% DMSO, *2: shaken for 1 hour at room temperature, read-out: JP2_μM.

Data on six compounds can be found in US20170073337A1, “DIHYDROTHIAZINE AND DIHYDROOXAZINE DERIVATIVES HAVING BACE1 INHIBITORY ACTIVITY” (Shionogi & Co., Ltd., priority 2014, published 2017).

Structures are written as SMILES. ≈ marks a conversion by molar mass, not a printed value. Like-named read-outs stand apart in the source and are kept apart here.

T7 sequence (P08183 whole entry): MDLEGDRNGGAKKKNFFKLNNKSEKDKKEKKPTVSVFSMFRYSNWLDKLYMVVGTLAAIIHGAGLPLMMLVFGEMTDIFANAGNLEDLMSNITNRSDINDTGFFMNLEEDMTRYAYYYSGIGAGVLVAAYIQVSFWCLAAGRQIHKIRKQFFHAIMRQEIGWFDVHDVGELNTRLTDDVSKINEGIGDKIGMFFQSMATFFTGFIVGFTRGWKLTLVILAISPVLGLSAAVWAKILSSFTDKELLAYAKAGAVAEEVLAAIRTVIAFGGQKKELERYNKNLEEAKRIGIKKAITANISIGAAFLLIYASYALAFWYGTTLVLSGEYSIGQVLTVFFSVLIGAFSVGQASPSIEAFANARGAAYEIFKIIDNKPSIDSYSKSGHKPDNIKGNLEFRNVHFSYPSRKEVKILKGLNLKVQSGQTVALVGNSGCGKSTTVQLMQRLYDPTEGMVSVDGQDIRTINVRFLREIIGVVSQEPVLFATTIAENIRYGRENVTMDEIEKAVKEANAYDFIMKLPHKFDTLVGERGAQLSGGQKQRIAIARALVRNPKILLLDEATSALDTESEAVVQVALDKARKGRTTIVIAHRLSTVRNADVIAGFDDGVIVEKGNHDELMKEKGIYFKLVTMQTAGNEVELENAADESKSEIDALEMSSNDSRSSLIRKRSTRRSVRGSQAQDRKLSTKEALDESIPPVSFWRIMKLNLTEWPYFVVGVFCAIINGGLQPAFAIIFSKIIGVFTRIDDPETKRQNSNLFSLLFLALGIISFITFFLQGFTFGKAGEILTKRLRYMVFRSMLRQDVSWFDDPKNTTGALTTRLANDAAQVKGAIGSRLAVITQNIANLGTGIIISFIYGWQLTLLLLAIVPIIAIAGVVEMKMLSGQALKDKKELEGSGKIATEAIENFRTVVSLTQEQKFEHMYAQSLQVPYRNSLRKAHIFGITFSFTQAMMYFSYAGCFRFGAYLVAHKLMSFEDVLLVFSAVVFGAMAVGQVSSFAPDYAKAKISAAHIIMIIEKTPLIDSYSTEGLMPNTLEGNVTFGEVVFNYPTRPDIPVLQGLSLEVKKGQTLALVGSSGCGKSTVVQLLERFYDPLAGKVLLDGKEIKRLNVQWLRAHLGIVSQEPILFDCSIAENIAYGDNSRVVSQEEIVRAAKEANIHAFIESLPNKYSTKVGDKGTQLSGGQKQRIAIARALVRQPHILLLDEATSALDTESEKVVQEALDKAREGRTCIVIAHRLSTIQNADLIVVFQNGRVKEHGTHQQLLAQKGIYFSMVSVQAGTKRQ
T6 sequence (P33261 whole entry): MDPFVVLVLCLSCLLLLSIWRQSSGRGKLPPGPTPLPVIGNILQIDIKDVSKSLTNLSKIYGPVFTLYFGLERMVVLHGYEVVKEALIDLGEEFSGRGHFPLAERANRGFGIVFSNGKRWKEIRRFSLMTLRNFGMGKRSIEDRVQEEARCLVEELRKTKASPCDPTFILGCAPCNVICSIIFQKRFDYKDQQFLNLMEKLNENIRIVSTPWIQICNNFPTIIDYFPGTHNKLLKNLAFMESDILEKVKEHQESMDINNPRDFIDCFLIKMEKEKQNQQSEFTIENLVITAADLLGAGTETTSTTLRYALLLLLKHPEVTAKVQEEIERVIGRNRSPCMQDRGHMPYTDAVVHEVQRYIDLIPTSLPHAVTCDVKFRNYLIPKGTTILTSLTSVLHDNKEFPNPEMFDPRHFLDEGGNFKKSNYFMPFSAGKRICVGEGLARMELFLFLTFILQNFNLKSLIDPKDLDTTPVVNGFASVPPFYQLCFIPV
T3 sequence (P08684 whole entry): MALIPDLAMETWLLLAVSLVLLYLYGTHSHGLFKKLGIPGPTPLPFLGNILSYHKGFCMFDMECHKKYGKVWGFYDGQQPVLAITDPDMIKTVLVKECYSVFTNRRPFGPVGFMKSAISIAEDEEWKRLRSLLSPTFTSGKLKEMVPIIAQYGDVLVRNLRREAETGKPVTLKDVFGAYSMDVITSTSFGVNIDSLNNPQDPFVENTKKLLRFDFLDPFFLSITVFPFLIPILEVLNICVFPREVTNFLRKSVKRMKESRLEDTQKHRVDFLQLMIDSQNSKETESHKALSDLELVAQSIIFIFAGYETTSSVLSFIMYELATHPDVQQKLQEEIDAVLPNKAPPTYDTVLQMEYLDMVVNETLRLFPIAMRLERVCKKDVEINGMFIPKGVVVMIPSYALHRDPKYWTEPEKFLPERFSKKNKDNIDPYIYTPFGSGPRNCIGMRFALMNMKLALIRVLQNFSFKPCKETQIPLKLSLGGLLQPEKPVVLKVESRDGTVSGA
T2 sequence (Q12809 whole entry): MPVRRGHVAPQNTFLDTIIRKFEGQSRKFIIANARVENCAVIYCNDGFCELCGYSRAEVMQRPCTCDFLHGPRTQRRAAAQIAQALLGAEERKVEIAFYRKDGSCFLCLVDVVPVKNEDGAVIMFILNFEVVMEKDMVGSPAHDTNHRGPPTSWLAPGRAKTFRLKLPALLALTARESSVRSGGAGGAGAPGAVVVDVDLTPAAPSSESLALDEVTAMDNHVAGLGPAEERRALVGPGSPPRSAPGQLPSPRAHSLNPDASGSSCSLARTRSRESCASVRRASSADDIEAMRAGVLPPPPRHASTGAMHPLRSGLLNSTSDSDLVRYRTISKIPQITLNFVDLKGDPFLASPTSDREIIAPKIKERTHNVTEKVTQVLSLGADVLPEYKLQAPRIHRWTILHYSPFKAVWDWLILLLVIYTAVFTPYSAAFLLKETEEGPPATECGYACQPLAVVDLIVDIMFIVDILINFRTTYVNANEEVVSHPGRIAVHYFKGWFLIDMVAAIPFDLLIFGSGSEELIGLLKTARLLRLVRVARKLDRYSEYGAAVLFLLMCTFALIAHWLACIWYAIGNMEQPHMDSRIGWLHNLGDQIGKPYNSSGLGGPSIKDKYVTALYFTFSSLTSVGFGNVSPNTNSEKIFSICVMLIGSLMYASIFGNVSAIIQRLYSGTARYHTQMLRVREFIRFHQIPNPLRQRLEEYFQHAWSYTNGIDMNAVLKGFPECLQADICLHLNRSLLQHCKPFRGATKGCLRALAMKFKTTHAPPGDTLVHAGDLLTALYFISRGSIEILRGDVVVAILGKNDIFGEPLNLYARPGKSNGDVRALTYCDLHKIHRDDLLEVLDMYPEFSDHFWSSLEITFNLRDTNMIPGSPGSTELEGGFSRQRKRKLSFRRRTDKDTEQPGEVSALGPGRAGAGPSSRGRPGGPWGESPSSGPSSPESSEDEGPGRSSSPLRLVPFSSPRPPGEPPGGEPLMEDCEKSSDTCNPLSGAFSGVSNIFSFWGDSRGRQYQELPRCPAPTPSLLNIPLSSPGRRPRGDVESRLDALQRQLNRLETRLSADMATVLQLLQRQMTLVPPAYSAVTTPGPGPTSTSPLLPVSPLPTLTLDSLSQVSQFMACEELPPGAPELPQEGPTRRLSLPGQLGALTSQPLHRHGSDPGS
T4 sequence (P56817 46-501): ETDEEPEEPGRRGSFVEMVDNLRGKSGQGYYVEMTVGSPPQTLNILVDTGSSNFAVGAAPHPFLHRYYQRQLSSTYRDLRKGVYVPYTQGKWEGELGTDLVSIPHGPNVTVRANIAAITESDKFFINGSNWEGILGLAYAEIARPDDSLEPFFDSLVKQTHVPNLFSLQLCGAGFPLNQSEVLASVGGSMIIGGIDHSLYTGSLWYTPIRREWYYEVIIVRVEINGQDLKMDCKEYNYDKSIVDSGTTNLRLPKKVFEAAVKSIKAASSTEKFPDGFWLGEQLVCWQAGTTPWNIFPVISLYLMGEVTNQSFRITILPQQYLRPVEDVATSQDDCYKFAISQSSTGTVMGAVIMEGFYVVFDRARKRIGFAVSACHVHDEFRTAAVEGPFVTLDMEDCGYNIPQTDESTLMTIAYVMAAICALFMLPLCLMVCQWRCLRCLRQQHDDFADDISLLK
T1 sequence (P11712 whole entry): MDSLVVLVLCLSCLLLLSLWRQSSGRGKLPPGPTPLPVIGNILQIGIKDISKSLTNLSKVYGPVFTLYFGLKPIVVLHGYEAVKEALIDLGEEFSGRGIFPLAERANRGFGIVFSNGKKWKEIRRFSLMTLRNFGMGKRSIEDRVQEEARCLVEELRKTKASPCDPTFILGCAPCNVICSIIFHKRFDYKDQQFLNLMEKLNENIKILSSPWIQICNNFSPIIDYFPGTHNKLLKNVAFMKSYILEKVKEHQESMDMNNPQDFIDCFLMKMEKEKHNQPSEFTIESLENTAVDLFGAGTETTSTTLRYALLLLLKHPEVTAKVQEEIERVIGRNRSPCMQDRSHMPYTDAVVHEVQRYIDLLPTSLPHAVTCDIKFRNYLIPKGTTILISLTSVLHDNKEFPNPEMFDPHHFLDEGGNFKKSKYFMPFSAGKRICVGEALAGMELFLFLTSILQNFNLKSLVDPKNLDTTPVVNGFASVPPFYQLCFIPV

Consider `C[C@]1(c2nc(NC(=O)c3cnc(OCF)cn3)ccc2F)N=C(N)S[C@H](CF)[C@@H]1F` [Compound I-5], for which the solubility kinetic at 16 h in “Solubility test” (setting [7]) was 34.3 µM (≈ 15.2 µg/mL); in the data set “Solubility test” (setting [8]) it was above 50 µM. The concentration for half-maximal inhibition (IC50) against CYP2C9 was at least 10000 nM; against CYP3A4 it was at least 20000 nM; on Recombinant human BACE1 [2], 29.9 nM; in [3] it was 2.88 nM; against CYP1A2 it was at least 20000 nM; at CYP2C19, at least 20000 nM. Besides, the “hERG_3 uM_%” value in [1] turned out to be 27.7%.
Regarding `C[C@]1(c2nc(NC(=O)c3ccc(Cl)cn3)ccc2F)N=C(N)S[C@H](CF)[C@@H]1F` [Compound I-6], the IC50 was at least 20000 nM against CYP3A4; 15 nM on Recombinant human BACE1 [2]; 1.29 nM in data set [3]; at least 20000 nM at CYP1A2; at least 10000 nM against CYP2C19.
Regarding `CO[C@H]1[C@@H](CF)OC(N)=N[C@]1(C)c1cc(NC(=O)c2ccc(Cl)cn2)ccc1Cl` [Compound I-21], the solubility kinetic at 16 h was 28.8 µM (≈ 12.7 µg/mL) in the data set “Solubility test” (setting [7]) and above 50 µM in “Solubility test” (setting [8]). Further, the IC50 on CYP2C9 is at least 20000 nM; against CYP3A4, at least 20000 nM; in data set [3], 2.93 nM; against CYP1A2, at least 20000 nM; against CYP2C19 it was at least 20000 nM. For the same compound, the “hERG_3 uM_%” value in [1] is 51.1%.
As to `C[C@H]1SC(N)=N[C@](C)(c2cc(NC(=O)c3ccc(OCC(F)(F)F)cn3)ccc2F)[C@H]1F` [Compound I-54], the remaining % in “Metabolic stability test” was determined as 91%. Moreover, the “ER ratio (Cell: MDR1/LLC-PK1)” value in data set [4] was 1.9. For the same compound, the 50% inhibitory concentration (IC50) is 13 nM on Recombinant human BACE1 [5] and 7.2 nM in data set [6]. Further, the solubility kinetic at 1 h in “Solubility test” (setting [9]) is above 50 µM; in the data set “Solubility test” (JP 2nd fluid B, pH 6.8, aqueous buffer, kinetic from dmso stock, read-out: JP2_μM), 38.6 µM (≈ 18.3 µg/mL). In addition, in data set [1], the “hERG_3 uM_%” value is reported as 37.7%.
Regarding `COc1ccc(C(=O)Nc2ccc(F)c([C@@]3(C)N=C(N)SCC34CC(F)(F)C4)c2)nc1` [Compound I-57], the “ER ratio (Cell: MDR1/LLC-PK1)” value in [4] came out at 0.6. For the same compound, the IC50 on Recombinant human BACE1 [5] was 16.1 nM; on CYP2C9, at least 20000 nM; on CYP3A4, at least 10000 nM; in [6] it was 0.68 nM; against CYP1A2 it was at least 20000 nM; on CYP2C19, at least 20000 nM. For the same compound, in the data set “Solubility test” (setting [9]), the solubility kinetic at 1 h was above 50 µM. Further, in “Solubility test” (setting [10]), the solubility kinetic at 16 h is reported as above 50 µM.
Take `Cc1cc(C#N)cnc1C(=O)Nc1ccc(F)c([C@@]2(C)N=C(N)SCC23CC(F)(F)C3)c1` [Compound I-60]: the “ER ratio (Cell: MDR1/LLC-PK1)” value in [4] was 1.4. The IC50 at Recombinant human BACE1 [5] was 6.62 nM; at CYP2C9, at least 20000 nM; in data set [6] it was 0.29 nM; against CYP1A2, at least 20000 nM; against CYP2C19, at least 20000 nM. Also, the solubility kinetic at 1 h in “Solubility test” (setting [9]) is above 50 µM. In addition, in “Solubility test” (setting [10]), the solubility kinetic at 16 h was above 50 µM.

As a reminder, the IC50 is the concentration needed to halve the response being measured.
